{
  "source": "ChEMBL document CHEMBL1146389",
  "about": "“Synthesis and evaluation of prodrugs for anti-angiogenic pyrrolylmethylidenyl oxindoles” (2007)",
  "key": {"HUVEC [1]": {"tested_on": "HUVEC", "assay": "Inhibition of VEGF-stimulated angiogenesis in HUVECs", "format": "functional, cell-based", "settings": "Homo sapiens"}, "HUVEC [2]": {"tested_on": "HUVEC", "assay": "Inhibition of VEGF-stimulated angiogenesis in HUVECs at 1 uM relative to control", "format": "functional", "settings": "Homo sapiens"}},
  "data": [
    {"smiles": "Cc1cc(C)c(/C=C2\\C(=O)N(Cc3ccc([N+](=O)[O-])cc3)c3ccccc32)[nH]1", "values": [
      {"measurement": "Activity", "setting": "HUVEC [1]", "value": "Dose-dependent effect"}
    ]},
    {"smiles": "Cc1cc(C)c(/C=C2\\C(=O)Nc3ccccc32)[nH]1", "note": "[SEMAXANIB]", "values": [
      {"measurement": "inhibition at 1 µM", "setting": "HUVEC [2]", "value": 94, "unit": "%"}
    ]}
  ]
}
